In patent publication US20260062443A1 (ALEXION PHARMACEUTICALS, INC., priority 2022, published 2026):

Biological target: T1, Human complement C1s enzyme (Homo sapiens, UniProt P09871)
T1 sequence (P09871 438-688 limits assumed): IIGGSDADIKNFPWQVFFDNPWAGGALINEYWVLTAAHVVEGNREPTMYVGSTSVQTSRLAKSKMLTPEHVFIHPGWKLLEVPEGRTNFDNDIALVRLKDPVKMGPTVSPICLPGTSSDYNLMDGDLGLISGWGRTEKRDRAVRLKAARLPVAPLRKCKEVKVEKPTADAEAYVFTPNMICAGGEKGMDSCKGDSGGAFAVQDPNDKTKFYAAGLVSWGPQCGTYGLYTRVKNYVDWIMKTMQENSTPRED
T1 sequence (P09871 16-437 partner limits assumed): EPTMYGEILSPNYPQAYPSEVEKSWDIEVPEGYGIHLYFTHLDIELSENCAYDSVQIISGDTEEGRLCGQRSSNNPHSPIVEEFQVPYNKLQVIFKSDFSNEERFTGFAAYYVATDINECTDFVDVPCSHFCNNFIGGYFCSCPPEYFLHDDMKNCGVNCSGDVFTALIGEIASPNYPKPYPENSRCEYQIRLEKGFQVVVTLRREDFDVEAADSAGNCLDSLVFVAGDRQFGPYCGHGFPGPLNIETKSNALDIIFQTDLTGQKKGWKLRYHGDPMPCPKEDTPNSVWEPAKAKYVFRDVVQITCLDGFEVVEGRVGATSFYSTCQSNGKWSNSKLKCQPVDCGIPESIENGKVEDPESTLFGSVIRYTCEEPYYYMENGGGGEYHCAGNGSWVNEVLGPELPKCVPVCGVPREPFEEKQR
Experiment: Human C1s enzyme assay
Assay type: biochemical
Conditions: human complement C1s enzyme 1.16 nM, substrate Z-L-Lys-SBzl 100 μM, 5 min preincubation; read-out: IC50 (Stars), C1s Inhibiting Activity
Summary of the method: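 IC50 from nonlinear regression of reaction rates versus compound concentration, with rates taken from A405 recorded at 30 s intervals over 30 min after adding 100 μM Z-L-Lys-SBzl plus 100 μM DTNB. Enzyme was human C1s purified from serum, 1.16 nM, given 5 min compound preincubation at room temperature, pH 7.5 Tris/1 M NaCl.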

Q: Which IC50 does the source give for O=C(NCC(=O)N1C[C@H](OC(F)F)C[C@H]1C(=O)NCc1ccn2ccnc2c1)c1ccc2c(c1)Oc1ccccc1S2 [Compound 237, (2S,4R)-4-(difluoromethoxy)-N-(imidazo[1,2-a]pyridin-7-ylmethyl)-1-((phenoxathiine-3-carbonyl)glycyl)pyrrolidine-2-carboxamide] here?
A: The IC50 was > 1000 nM.

Q: With CCc1ccc(Oc2cc(F)cc(C(=O)NCC(=O)N3[C@H]4C[C@@]4(C)C[C@H]3C(=O)NCc3cc4cnccc4[nH]3)c2)cc1 [Compound 371, (1S,3S,5S)-N-((1H-pyrrolo[3,2-c]pyridin-2-yl)methyl)-2-((3-(4-ethylphenoxy)-5-fluorobenzoyl)glycyl)-5-methyl-2-azabicyclo[3.1.0]hexane-3-carboxamide] as the molecule, how does the IC50 read?
A: Its IC50 is < 100 nM.

Q: With C[C@@H](NC(=O)[C@@H]1C[C@@H](c2nccs2)CN1C(=O)CNC(=O)c1ccc2c(c1)Oc1ccccc1S2)c1cc2cnccc2[nH]1 [Compound 150, (2S,4R)-N-((R)-1-(1H-pyrrolo[3,2-c]pyridin-2-yl)ethyl)-1-((phenoxathiine-3-carbonyl)glycyl)-4-(thiazol-2-yl)pyrrolidine-2-carboxamide] as the molecule, how does the IC50 read?
A: Its IC50 is < 100 nM.

Q: With O=C(NCC(=O)N1C[C@H](OC(F)F)C[C@H]1C(=O)NCc1cc2cnccc2[nH]1)c1cncc(N2CCOCC2)n1 [Compound 380, N-(2-((2S,4R)-2-(((1H-pyrrolo[3,2-c]pyridin-2-yl)methyl)carbamoyl)-4-(difluoromethoxy)pyrrolidin-1-yl)-2-oxoethyl)-6-morpholinopyrazine-2-carboxamide] as the molecule, how does the IC50 read?
A: The IC50 was > 1000 nM.

Q: C[C@@]12C[C@@H]1N(C(=O)CNC(=O)CCCOc1ccccc1)[C@H](C(=O)NCc1ccc3c(c1)CNC3)C2 [Compound 67, (1S,3S,5S)-N-(isoindolin-5-ylmethyl)-5-methyl-2-((4-phenoxybutanoyl)glycyl)-2-azabicyclo[3.1.0]hexane-3-carboxamide] was tested. Which IC50 did it give?
A: The IC50 was 100 to 1000 nM.

Q: C[C@@]12C[C@@H]1N(C(=O)CNC(=O)CCCOc1ccccc1)[C@H](C(=O)N[C@@H]1CCN(C(=O)CCN)C1)C2 [Compound 60, (1S,3S,5S)-N-((R)-1-(3-aminopropanoyl)pyrrolidin-3-yl)-5-methyl-2-((4-phenoxybutanoyl)glycyl)-2-azabicyclo[3.1.0]hexane-3-carboxamide] was tested. Which IC50 did it give?
A: The IC50 was > 1000 nM.

Q: Cc1nc(N)ccc1CNC(=O)[C@@H]1C[C@]2(C)C[C@@H]2N1C(=O)CNC(=O)c1ccc2c(c1)Oc1ccccc1S2 [Compound 110, (1S,3S,5S)-N-((6-amino-2-methylpyridin-3-yl)methyl)-5-methyl-2-((phenoxathiine-3-carbonyl)glycyl)-2-azabicyclo[3.1.0]hexane-3-carboxamide] was tested. Which IC50 did it give?
A: The IC50 was > 1000 nM.

Q: CC(C)S(=O)(=O)[C@@H]1C[C@@H](C(=O)N[C@H](C)c2cc3cnccc3[nH]2)N(C(=O)CNC(=O)c2ccc3c(c2)Oc2ccccc2S3)C1 [Compound 133, (2S,4R)-N-((R)-1-(1H-pyrrolo[3,2-c]pyridin-2-yl)ethyl)-4-(isopropylsulfonyl)-1-((phenoxathiine-3-carbonyl)glycyl)pyrrolidine-2-carboxamide] was tested. Which IC50 did it give?
A: The IC50 was < 100 nM.

Q: How did the IC50 turn out when C[C@@]12C[C@@H]1N(C(=O)CNC(=O)c1cccc(Oc3ccccc3)c1)[C@H](C(=O)NCc1cc3cnccn3c1)C2 [Compound 277, (1S,3S,5S)-5-methyl-2-((3-phenoxybenzoyl)glycyl)-N-(pyrrolo[1,2-a]pyrazin-7-ylmethyl)-2-azabicyclo[3.1.0]hexane-3-carboxamide] was run?
A: The IC50 was < 100 nM.

Q: With O=C(NCC(=O)N1C[C@H](OC(F)F)C[C@H]1C(=O)NCc1cc2cnccc2[nH]1)c1ccccc1Oc1ccccc1 [Compound 239, (2S,4R)-N-((1H-pyrrolo[3,2-c]pyridin-2-yl)methyl)-4-(difluoromethoxy)-1-((2-phenoxybenzoyl)glycyl)pyrrolidine-2-carboxamide] as the molecule, how does the IC50 read?
A: Its IC50 is > 1000 nM.

Q: Which IC50 does the source give for CS(=O)(=O)[C@@H]1C[C@@H](C(=O)NCc2cc3cnccc3[nH]2)N(C(=O)CNC(=O)c2ccc3c(c2)Oc2ccccc2S3)C1 [Compound 27, (2S,4R)-N-((1H-pyrrolo[3,2-c]pyridin-2-yl)methyl)-4-(methylsulfonyl)-1-((phenoxathiine-3-carbonyl)glycyl)pyrrolidine-2-carboxamide] here?
A: The IC50 was < 100 nM.

Q: Which IC50 does the source give for O=C(NCC(=O)N1CC2(C[C@H]1C(=O)NCc1cc3cnccn3c1)OCCO2)c1ccc2c(c1)Oc1ccccc1S2 [Compound 111, 7-{2-[(Phenoxathiine-3-carbonyl)-amino]-acetyl}-1,4-dioxa-7-aza-spiro[4.4]nonane-8-carboxylic acid (pyrrolo[1,2-a]pyrazin-7-ylmethyl)-amide] here?
A: The IC50 was < 100 nM.

Q: C[C@@H](NC(=O)[C@@H]1C[C@@H](S(C)(=O)=O)CN1C(=O)CNC(=O)c1ccc2c(c1)-c1ccccc1C2(F)F)c1cc2cnccc2[nH]1 [Compound 72, (2S,4R)-N-((R)-1-(1H-pyrrolo[3,2-c]pyridin-2-yl)ethyl)-1-((9,9-difluoro-9H-fluorene-3-carbonyl)glycyl)-4-(methylsulfonyl)pyrrolidine-2-carboxamide] was tested. Which IC50 did it give?
A: The IC50 was < 100 nM.

Q: C[C@@H](NC(=O)[C@@H]1C[C@](F)(Cn2ccnn2)CN1C(=O)CNC(=O)c1ccc2c(c1)Oc1ccccc1S2)c1cc2cnccc2[nH]1 [Compound 216, (2S,4R)-4-((1H-1,2,3-triazol-1-yl)methyl)-N-((R)-1-(1H-pyrrolo[3,2-c]pyridin-2-yl)ethyl)-4-fluoro-1-((phenoxathiine-3-carbonyl)glycyl)pyrrolidine-2-carboxamide] was tested. Which IC50 did it give?
A: Its IC50 is < 100 nM.

Q: With Cc1ccc2cc(C(=O)NCC(=O)N3CC4(C[C@H]3C(=O)NCc3cc5cnccc5[nH]3)OCCO4)sc2c1 [Compound 281, (S)-N-((1H-pyrrolo[3,2-c]pyridin-2-yl)methyl)-7-((6-methylbenzo[b]thiophene-2-carbonyl)glycyl)-1,4-dioxa-7-azaspiro[4.4]nonane-8-carboxamide] as the molecule, how does the IC50 read?
A: The IC50 was 100 to 1000 nM.

Q: How did the IC50 turn out when O=C(NCC(=O)N1C[C@H](OC(F)F)C[C@H]1C(=O)NCc1ccc2c(c1)CNC2)c1ccc2c(c1)Oc1ccccc1S2 [Compound 228, (2S,4R)-4-(difluoromethoxy)-N-(isoindolin-5-ylmethyl)-1-((phenoxathiine-3-carbonyl)glycyl)pyrrolidine-2-carboxamide] was run?
A: Its IC50 is < 100 nM.

Q: How did the IC50 turn out when C[C@@]12C[C@@H]1N(C(=O)CNC(=O)CCCOc1ccccc1)[C@H](C(=O)NCc1cnc3c(CN)cccn13)C2 [Compound 63, (1S,3S,5S)-N-((8-(aminomethyl)imidazo[1,2-a]pyridin-3-yl)methyl)-5-methyl-2-((4-phenoxybutanoyl)glycyl)-2-azabicyclo[3.1.0]hexane-3-carboxamide] was run?
A: Its IC50 is > 1000 nM.

Q: With O=C(NCC(=O)N1C[C@H](OC(F)F)C[C@H]1C(=O)NCc1cc2cnccc2[nH]1)c1ccc(-c2ccccn2)s1 [Compound 381, (2S,4R)-4-(difluoromethoxy)-1-[2-[[5-(2-pyridyl)thiophene-2-carbonyl]amino]acetyl]-N-(1H-pyrrolo[3,2-c]pyridin-2-ylmethyl)pyrrolidine-2-carboxamide] as the molecule, how does the IC50 read?
A: Its IC50 is < 100 nM.

Q: For O=C(NCC(=O)N1C[C@H](OC(F)F)C[C@H]1C(=O)NCc1cc2cnccc2[nH]1)c1cccc(Oc2cccs2)c1 [Compound 275, (2S,4R)-N-((1II-pyrrolo[3,2-c]pyridin-2-yl)methyl)-4-(difluoromethoxy)-1-((3-(thiophen-2-yloxy)benzoyl)glycyl)pyrrolidine-2-carboxamide], which IC50 is on record?
A: Its IC50 is < 100 nM.

Q: Which IC50 does the source give for Cc1ccc(COc2cccc(C(=O)NCC(=O)N3C[C@H](OC(F)F)C[C@H]3C(=O)NCc3cc4cnccc4[nH]3)c2)c(F)c1 [Compound 325, (2S,4R)-N-((1H-pyrrolo[3,2-c]pyridin-2-yl)methyl)-4-(difluoromethoxy)-1-((3-((2-fluoro-4-methylbenzyl)oxy)benzoyl)glycyl)pyrrolidine-2-carboxamide] here?
A: The IC50 was < 100 nM.

Q: O=C(NCC(=O)N1C[C@H](OC(F)F)C[C@H]1C(=O)N[C@H](CO)c1cc2cnccc2[nH]1)c1ccc2c(c1)Oc1ccccc1S2 [Compound 93, (2S,4R)-4-(difluoromethoxy)-N-((S)-2-hydroxy-1-(1H-pyrrolo[3,2-c]pyridin-2-yl)ethyl)-1-((phenoxathiine-3-carbonyl)glycyl)pyrrolidine-2-carboxamide] was tested. Which IC50 did it give?
A: The IC50 was < 100 nM.

Q: With O=C(NCC(=O)N1C[C@H](OC(F)F)C[C@H]1C(=O)NCc1ccc2[nH]ccc2n1)c1ccc2c(c1)Oc1ccccc1S2 [Compound 230, (2S,4R)-N-((1H-pyrrolo[3,2-b]pyridin-5-yl)methyl)-4-(difluoromethoxy)-1-((phenoxathiine-3-carbonyl)glycyl)pyrrolidine-2-carboxamide] as the molecule, how does the IC50 read?
A: The IC50 was > 1000 nM.

Q: How did the IC50 turn out when C[C@@H](NC(=O)[C@@H]1C[C@](F)(CF)CN1C(=O)CNC(=O)c1ccc(-c2ccccc2)cc1)c1cc2cnccc2[nH]1 [Compound 84, (2S,4R)-N-((R)-1-(1H-pyrrolo[3,2-c]pyridin-2-yl)ethyl)-1-(([1,1′-biphenyl]-4-carbonyl)glycyl)-4-fluoro-4-(fluoromethyl)pyrrolidine-2-carboxamide] was run?
A: Its IC50 is > 1000 nM.
